Data set [1] in a line: growth suppression of PTEN-null colon cells, dose response, cell-based, HCT116 PTEN knockout (AID 1047).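 Also: HCT116 colon tumor cells with PTEN knocked out; cells exposed to compound for 60 hours before readout; potency for loss of cell viability measured by luminescence.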 Format: functional.
Data set [2] can be described thus: growth suppression of beta-catenin-knockout colon cells, dose response, cell-based, HCT116, human colon tumor (AID 1045).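 Also: HCT116 colon tumor cells with beta catenin knocked out; cells exposed to compound for 60 hours.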 Type of data set: functional.
The target of data set [3] is T1, Heat shock factor protein 1 (Mus musculus, UniProt P38532).
T1 sequence (P38532 whole entry): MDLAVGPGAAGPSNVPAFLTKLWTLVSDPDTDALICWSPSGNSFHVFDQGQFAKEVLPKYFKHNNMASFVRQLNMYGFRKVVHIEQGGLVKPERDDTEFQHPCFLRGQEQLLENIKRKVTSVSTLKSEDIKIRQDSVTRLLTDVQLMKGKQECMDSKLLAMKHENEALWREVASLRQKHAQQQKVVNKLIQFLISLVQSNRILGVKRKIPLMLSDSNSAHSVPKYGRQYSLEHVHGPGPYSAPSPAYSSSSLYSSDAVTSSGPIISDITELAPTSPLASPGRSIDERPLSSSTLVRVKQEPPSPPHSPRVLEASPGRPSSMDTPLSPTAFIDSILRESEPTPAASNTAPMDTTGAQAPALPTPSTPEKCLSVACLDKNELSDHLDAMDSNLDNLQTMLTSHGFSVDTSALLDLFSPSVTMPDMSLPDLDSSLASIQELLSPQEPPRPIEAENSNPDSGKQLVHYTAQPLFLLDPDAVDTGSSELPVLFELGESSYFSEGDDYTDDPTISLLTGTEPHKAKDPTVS
Kind of data set: inhibition of MG132-induced HSE-luciferase signal, confirmation, cell-based, NIH3T3, luminescence, dose retest (AID 2382).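 Also: NIH3T3 fibroblasts with HSF1-driven luciferase reporter stressed by proteasome inhibitor MG132; luminescence from HSF1-driven luciferase expression after 8 hours of MG132 stress.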 Format: functional.

A further data set addresses Cytochrome P450 2C19 (Homo sapiens, UniProt P33261). The data set is described as follows: Cytochrome panel assay with activity outcomes. Panel member name: p450-cyp2c19 Compounds with AC50 equal or less than 10 uM are considered active. Format: functional.
The target in a further data set is Cytochrome P450 3A4 (Homo sapiens, UniProt P08684).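 Also: CYP3A4 tested as one member of a cytochrome P450 panel screen.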
Cytochrome P450 3A4, sequence (P08684 whole entry): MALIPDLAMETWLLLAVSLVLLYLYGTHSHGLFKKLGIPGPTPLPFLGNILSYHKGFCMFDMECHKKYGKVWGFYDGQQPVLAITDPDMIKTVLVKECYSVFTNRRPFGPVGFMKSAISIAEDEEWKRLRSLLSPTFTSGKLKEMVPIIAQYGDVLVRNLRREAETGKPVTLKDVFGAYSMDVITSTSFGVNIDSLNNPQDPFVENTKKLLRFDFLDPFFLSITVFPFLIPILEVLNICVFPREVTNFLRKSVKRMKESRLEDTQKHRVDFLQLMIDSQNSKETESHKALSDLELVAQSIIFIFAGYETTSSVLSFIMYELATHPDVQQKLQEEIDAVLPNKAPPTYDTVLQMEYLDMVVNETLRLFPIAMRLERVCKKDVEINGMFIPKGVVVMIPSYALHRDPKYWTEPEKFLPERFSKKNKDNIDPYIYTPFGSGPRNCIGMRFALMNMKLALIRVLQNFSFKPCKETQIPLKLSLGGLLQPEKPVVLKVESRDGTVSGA
Data set [4] concerns the target Luciferin 4-monooxygenase (Photinus pyralis, UniProt P08659). The data set is described as follows: firefly luciferase enzyme inhibitors, dose response, biochemical, luminescence (AID 1891).
Data set [5] can be described thus: Luminescence Cell-Based Dose Confirmation HTS to Identify Inhibitors of Platelet Dense Granule Release. [Related pubchem assays: 1663 (Primary HTS), 1678 (Summary of Project)]. Format: functional.
Data set [6] in a line: Luminescence Cell-Based Dose Retest to Confirm Inhibitors of Cancer Stem Cells. [Related pubchem assays (depositor defined):AID2717, AID2721]. The following applies: Homo sapiens. Type of data set: functional.
Data set [7] is described as follows: Luminescence Cell-Based Dose Response HTS to Identify Activators of Luciferase Translation or Activity in H4 […] Cells. [Related pubchem assays: 1829 (Project Summary), 1814 (Primary HTS)]. Type of data set: functional.
Data set [8] can be described thus: inhibitors of intracellular T. cruzi replication, confirmation, NIH3T3 host cells, beta-gal luminescence (AID 2044).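 Also: intracellular parasites grown in NIH/3T3 mouse fibroblasts as host cells; luminescent beta-galactosidase reporter signal from transgenic T. cruzi replicating inside host cells; inhibitors lower the luminescence signal.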 Type of data set: functional, cell-based.
The nature of data set [9]: cytotoxicity toward NIH3T3 fibroblasts, dose response, counter-screen, cell-based, ATP luminescence, mouse fibroblasts (AID 2010).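 Also: cells exposed to compound for about 90 hours before reading.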 Format: functional.
The subject of the next data set is INS1. Kind of data set: beta cell apoptosis inhibitors, cytokine rescue, dose response, luminescence, retest (AID 449756).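 Also: cell death triggered by IL-1 beta plus TNF-alpha plus IFN-gamma mixture; protective hits raise ATP signal compared with cytokine alone wells.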 Format: functional, cell-based. The following applies: Rattus norvegicus.

The source made the active and inactive calls. A value given as a limit tells only on which side of the number the result lay.

Broadly, the EC50 is the midpoint of the concentration-response curve. As a reminder, the AC50 is the midpoint of the concentration-response curve, whichever way the signal moves.

Cytochrome P450 2C19, sequence (P33261 whole entry): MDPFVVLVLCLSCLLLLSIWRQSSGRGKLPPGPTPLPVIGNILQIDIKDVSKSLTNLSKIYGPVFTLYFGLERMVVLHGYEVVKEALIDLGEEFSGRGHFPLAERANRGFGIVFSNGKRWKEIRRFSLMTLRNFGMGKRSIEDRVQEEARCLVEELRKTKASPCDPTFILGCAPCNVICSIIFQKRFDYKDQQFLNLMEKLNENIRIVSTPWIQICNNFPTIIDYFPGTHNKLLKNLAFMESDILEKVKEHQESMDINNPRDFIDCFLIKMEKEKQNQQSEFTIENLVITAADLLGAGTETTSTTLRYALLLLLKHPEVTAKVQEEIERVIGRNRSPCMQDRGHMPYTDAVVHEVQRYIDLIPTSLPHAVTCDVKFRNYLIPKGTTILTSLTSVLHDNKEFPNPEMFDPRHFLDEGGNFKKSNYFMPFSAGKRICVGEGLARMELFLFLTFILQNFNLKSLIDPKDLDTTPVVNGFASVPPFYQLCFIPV
Luciferin 4-monooxygenase, sequence (P08659 whole entry): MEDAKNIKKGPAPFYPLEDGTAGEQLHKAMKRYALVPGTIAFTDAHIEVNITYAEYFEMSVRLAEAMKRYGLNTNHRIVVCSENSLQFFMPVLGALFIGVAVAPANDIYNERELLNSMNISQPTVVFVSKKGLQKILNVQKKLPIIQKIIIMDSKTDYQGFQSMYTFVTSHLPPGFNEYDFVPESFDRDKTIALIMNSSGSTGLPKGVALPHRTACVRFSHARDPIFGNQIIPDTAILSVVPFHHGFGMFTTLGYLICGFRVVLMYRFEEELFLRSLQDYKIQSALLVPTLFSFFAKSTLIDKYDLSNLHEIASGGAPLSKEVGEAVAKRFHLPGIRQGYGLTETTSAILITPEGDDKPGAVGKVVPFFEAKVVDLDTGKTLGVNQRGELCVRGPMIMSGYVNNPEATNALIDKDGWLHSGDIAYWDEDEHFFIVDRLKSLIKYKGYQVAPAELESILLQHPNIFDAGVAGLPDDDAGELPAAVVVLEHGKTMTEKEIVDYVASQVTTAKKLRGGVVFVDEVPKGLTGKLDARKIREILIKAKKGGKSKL

In the case of `Cc1sc2nc(CN3CCC(C)CC3)nc(Cl)c2c1C`, the EC50 in [1] was 18.5 µM (active); in data set [2] it was 14.5 µM (active). As for `Fc1ccc(-c2nc3c(-c4ccc(Cl)cc4)cnn3cc2CCN2CCOCC2)cc1`, the EC50 in data set [3] was > 195 µM (not active).

Regarding `Fc1cnc(N2CCc3ccccc32)nc1N1CCc2ccccc21`, the EC50 in data set [1] was 30 µM (active); in data set [2], 25.5 µM (active). For `Oc1nc2cc3c(cc2cc1C(c1nnnn1C1CCCC1)N1CCSCC1)OCCO3` (stereo unspecified) the same measures were 28.9 µM (active) and 94.3 µM (active). With `CN(C)c1ncc2nc(-c3ccccc3)c(=O)n(C)c2n1`, the AC50 at Cytochrome P450 2C19 (read-out: AC50) is 39.8 µM (inconclusive).

Regarding `COc1cccc(Nc2ncc3nc(CCc4ccccc4)c(=O)n(CCC#N)c3n2)c1`, the AC50 on Cytochrome P450 3A4 is 2 µM (inconclusive). Regarding `Cc1ccc(-c2nc3cccnc3o2)cc1NC(=O)COc1ccc(Cl)cc1C`, the values for the half-maximal effective concentration (EC50) in data set [1] and in [2] were 5.15 µM (active) and 14.6 µM (active), respectively.

With `COc1ccc(CCn2c(=N)c(C(=O)NCC3CCCO3)cc3c(=O)n4ccccc4nc32)cc1OC` (stereo unspecified), the EC50 in data set [4] and in data set [5] was > 112 µM (not active) throughout.

As for `COc1cccc(-c2nnc(-c3ccco3)o2)c1`, the EC50 is > 112 µM (not active) in data set [4] and 40.9 µM (active) in data set [5].

As for `COc1ccc(NC(=O)CN(C)CC(=O)Nc2ccc3c(c2)CCC3)cc1`, the EC50 in [3] is recorded as > 195 µM (not active). In the case of `Cc1ccc(C(=O)Nc2ccc(Br)c(C(F)(F)F)c2)cc1`, the EC50 is 19.7 µM (active) in [1] and 23.8 µM (active) in data set [2]. For `CCCCC(CC)CN1C(=O)/C(=C/c2c[nH]nc2-c2ccccc2)SC1=S` (stereo unspecified) the same measures were 21.3 µM (active) and 21.1 µM (active).

For the molecule `O=C(Oc1ccccc1Cl)c1ccc(-n2cncn2)nc1`, in [3], the 50% effective concentration (EC50) is listed as > 195 µM (not active). Turning to `Cc1ccc(C)c(Nc2nc(N)c3ccccc3n2)c1`, the results for the EC50 in data set [4] and in [5] were 12.2 µM (active) and 11 µM (active), respectively. Take `COc1cc([C@@H]2c3cc4c(cc3[C@@H](O)[C@H]3COC(=O)[C@H]23)OCO4)cc(OC)c1O[Si](C)(C)C(C)(C)C`: the AC50 in data set [6] is 3.64 µM (active). The same measure, in the same setting: the value for `CC(C)(C)NC(=O)Cn1nnc(-c2ccc(OCc3c(F)cccc3Cl)cc2)n1` was 1.33 µM (active).

As to `Cc1ccc(Oc2nc(CN3CCOCC3)nc3sc4c(c23)CCC(C)C4)cc1C` (stereo unspecified), the EC50 in data set [3] was > 195 µM (not active). Also, the concentration at half-maximal activity (AC50) in [6] was 6.74 µM (active). Regarding `O=C1NC(=O)N(CCC2=CCCCC2)C(=O)/C1=C\NNc1ccccc1`, in [6], the AC50 was 2.46 µM (active). For `Cc1ccc2nc(-c3ccc(NS(=O)(=O)c4c(C)n(C)c(=O)n(C)c4=O)cc3)sc2c1`, in [7], the EC50 is 2.06 µM (active). In the case of `COc1ccc(NCc2nnc(SCC(=O)Nc3cc(C(F)(F)F)ccc3Cl)o2)cc1`, the EC50 in data set [3] is listed as > 195 µM (not active). Still for that read-out and setting: the value for `NC(=O)C1CCN(CC(=O)Nc2nc(-c3ccccc3)cs2)CC1` was > 195 µM (not active). Still for that read-out and setting: with `CCN(CC)C(=O)CN1C(=O)/C(=C/c2ccccc2)SC1=S` the figure was > 195 µM (not active). On to `C=C(C)COc1ccc2c(C)c(CC(=O)OC)c(=O)oc2c1C`, for which the EC50 was 81.2 µM (active) in data set [1] and 31.9 µM (active) in [2]. Turning to `Cc1nnc2sc(-c3ccc(-c4ccc(Cl)c(C(F)(F)F)c4)o3)nn12`, the EC50 in [4] and in data set [5] was > 112 µM (not active) throughout. As for `CCc1ccc(N(C(=O)c2csnn2)C(C(=O)NC(C)(C)C)c2ccncc2)cc1` (stereo unspecified), the AC50 at Cytochrome P450 2C19 (read-out: AC50) is 2.82 µM (inconclusive). For the molecule `O=C(O)CC(NC(=O)C(c1ccccc1)c1ccccc1)c1ccco1` (stereo unspecified), the EC50 in data set [4] and in data set [5] was > 112 µM (not active) in each case.

For `CCCCn1c(=O)c(C(=O)NCc2ccc(Cl)cc2)c(O)c2ccccc21`, in [6], the half-maximal activity concentration (AC50) was 5.25 µM (active).

`Nn1c(SCC(=O)NC2CCCC2)nnc1-c1ccccc1F`: the EC50 in data set [3] is > 195 µM (not active).

As for `CC(C)NC(=O)N1CCCC2(CCN(C(=O)c3ccco3)CC2)C1`, the AC50 on Cytochrome P450 3A4 was 25.1 µM (inconclusive).

`CC1CCCN(C(=O)C2(NC(=O)Nc3cccc(F)c3)CCCCC2)C1` (stereo unspecified): the EC50 in data set [3] is on record as > 195 µM (not active). On the same count and under the same terms, the value for `CC(C)(C)C(=O)OCc1nc(-c2ccc3c(c2)OCCO3)cs1` was > 195 µM (not active). For `O=C(COc1ccc(Cl)cc1Cl)NN=C1c2ccccc2-c2ccccc21`, the EC50 is 7.45 µM (active) in data set [1] and 6.99 µM (active) in [2]. For the molecule `CCOC(=O)C1=C(CSc2nc3ccccc3s2)NC(=O)NC1c1cccc([N+](=O)[O-])c1` (stereo unspecified), the AC50 on Cytochrome P450 2C19 (read-out: AC50) was 1.58 µM (inconclusive). Still for that read-out and setting: the value for `CN1CCN(c2ncc3nc(-c4cccc(C#N)c4)c(=O)n(Cc4ccc(F)cc4)c3n2)CC1` was 10 µM (inconclusive). On to `Cc1c(C=C2C(=O)N(C)C(=O)N(C)C2=O)c(=O)n(-c2ccccc2)n1C`, for which the EC50 in data set [3] was > 195 µM (not active).

Consider `COc1cccc(NC(S)=NN2CCN(C)CC2)c1`, for which the half-maximal activity concentration (AC50) on Cytochrome P450 2C19 (read-out: AC50) is 28.2 µM (inconclusive).

As to `COc1ccc(-c2nc3scc(-c4ccc(OC)c(OC)c4)c3c(=O)o2)cc1`, the EC50 in data set [1] was 24.7 µM (active); in [2], 16.4 µM (active). `CCCn1c(SCC(=O)N2CCCC(C)C2)nnc1-c1ccccn1` (stereo unspecified): the EC50 in data set [4] and in data set [5] was > 112 µM (not active) in each case. Consider `Cc1ccc2[nH]c(/C(C#N)=C\c3ccc(Oc4ccc([N+](=O)[O-])cn4)cc3)nc2c1`, for which the EC50 in [1] was 76.4 µM (active); in [2], 46.9 µM (active). Take `O=C(CC1Nc2ccccc2NC1=O)Nc1ccccc1NC(=O)CC1Nc2ccccc2NC1=O` (stereo unspecified): the EC50 in data set [3] is > 195 µM (not active). With `O=C(CSc1nc(-c2ccccc2)cc(C(F)(F)F)n1)c1cccc([N+](=O)[O-])c1`, the AC50 in data set [6] is 5.41 µM (active). Take `CCOc1ccc(NC(=O)Nc2cc(C)ccc2F)cc1`: the EC50 in data set [4] is 1.02 µM (active); in [5], 1.81 µM (active). For the molecule `COc1cc(CNc2ccc3[nH]c(O)nc3c2)ccc1OCC(=O)NC(C)(C)C`, the EC50 in [5] is 12.4 µM (active). Regarding `CCCn1c(C)cc(=O)c2cc(NC(=O)c3cnccn3)ccc21`, the EC50 in [1] is 33.7 µM (active); in [2], 19.9 µM (active). `Cc1nc(SCC(=O)NCC2CCCO2)nc(O)c1C` (stereo unspecified): the EC50 in [3] was > 195 µM (not active). The same measure, in the same setting: the value for `Cc1occc1-c1nnc(SCC(=O)Nc2ccccc2)n1C` was > 195 µM (not active). Regarding `CN(C)c1ccc(CNC(=O)c2cc(S(=O)(=O)N3CCOCC3)cn2C)cc1`, the EC50 in data set [4] and in data set [5] was > 112 µM (not active) in each case. With `COc1ccc(-c2nc(NC(=O)c3cc(C(C)(C)C)nn3C)sc2C)cc1`, the figures for the EC50 in data set [8] and in data set [9] were 1.76 µM (active) and 8.58 µM (active), respectively. Further, the AC50 in the data set with INS1 is 10.2 µM (active); in data set [6], 7.12 µM (active).

As for `Cn1c(SCC(=O)N=Nc2c(O)[nH]c3ccccc23)nc2ccccc21`, the EC50 in data set [4] and in [5] was > 112 µM (not active) throughout. Turning to `[O-]/[N+](=C/c1ccc(F)cc1)c1ccc(Cl)cc1`, the EC50 in data set [4] and in data set [5] was > 112 µM (not active) in each case.

For the molecule `O=C(/C=C/c1ccc(Br)o1)NCCCN1CCOCC1`, the EC50 in [3] is recorded as > 195 µM (not active). As to `Cc1cccc(N(CC(=O)N2CCOCC2)S(C)(=O)=O)c1`, the AC50 entry at Cytochrome P450 2C19 was “inconclusive”.

For the molecule `O=c1c2ccccc2nc(COc2ccccc2)n1/N=C/c1c[nH]nc1-c1ccccc1`, the EC50 in data set [1] was 19.6 µM (active); in [2], 24.5 µM (active).

As to `O=S(=O)(N/N=C1/CC(c2ccccc2)Oc2ccccc21)c1ccc(Br)cc1` (stereo unspecified), in data set [6], the AC50 is 2.79 µM (active). With `CN(C)c1ccc(/C=N/NC(=O)C2COc3ccccc3O2)o1` (stereo unspecified), in data set [3], the EC50 is reported as > 195 µM (not active). For `COc1ccc(/C=N/Nc2ncccc2[N+](=O)[O-])c(OC)c1`, the EC50 in data set [4] was 2.42 µM (active); in data set [5], 2.57 µM (active).

As for `CCc1ccc(/C=N/NC(=O)c2nnn(-c3nonc3N)c2CN2CCOCC2)cc1`, the EC50 in data set [4] was > 112 µM (not active); in data set [5], 52.9 µM (active). Take `CCCSc1nnc(CSc2nc3nc(C)cc(C)n3n2)o1`: at Cytochrome P450 2C19 (read-out: AC50), the half-maximal activity concentration (AC50) is 15.8 µM (inconclusive).

The record behind these values is ChEMBL document CHEMBL1201862, “PubChem BioAssay data set” (2004).
